Assay [1] has as its target T1, Peroxisome proliferator-activated receptor alpha (Homo sapiens, UniProt Q07869).
T1 sequence (Q07869 whole entry): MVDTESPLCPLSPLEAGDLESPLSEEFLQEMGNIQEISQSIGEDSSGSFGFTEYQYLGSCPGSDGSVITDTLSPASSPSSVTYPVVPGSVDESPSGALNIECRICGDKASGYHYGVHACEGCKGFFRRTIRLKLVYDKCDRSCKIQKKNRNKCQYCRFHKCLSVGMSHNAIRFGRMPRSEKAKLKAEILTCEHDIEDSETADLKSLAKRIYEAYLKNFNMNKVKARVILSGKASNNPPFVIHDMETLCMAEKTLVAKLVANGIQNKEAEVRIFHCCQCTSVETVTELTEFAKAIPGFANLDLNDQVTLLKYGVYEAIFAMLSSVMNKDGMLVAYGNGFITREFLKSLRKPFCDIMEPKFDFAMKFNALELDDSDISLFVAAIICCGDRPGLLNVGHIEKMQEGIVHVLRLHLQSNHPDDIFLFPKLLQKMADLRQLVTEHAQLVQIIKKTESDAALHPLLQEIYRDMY
In kind it is functional.

The target in assay [2] is T2, Peroxisome proliferator-activated receptor gamma (Homo sapiens, UniProt P37231).
T2 sequence (P37231 whole entry): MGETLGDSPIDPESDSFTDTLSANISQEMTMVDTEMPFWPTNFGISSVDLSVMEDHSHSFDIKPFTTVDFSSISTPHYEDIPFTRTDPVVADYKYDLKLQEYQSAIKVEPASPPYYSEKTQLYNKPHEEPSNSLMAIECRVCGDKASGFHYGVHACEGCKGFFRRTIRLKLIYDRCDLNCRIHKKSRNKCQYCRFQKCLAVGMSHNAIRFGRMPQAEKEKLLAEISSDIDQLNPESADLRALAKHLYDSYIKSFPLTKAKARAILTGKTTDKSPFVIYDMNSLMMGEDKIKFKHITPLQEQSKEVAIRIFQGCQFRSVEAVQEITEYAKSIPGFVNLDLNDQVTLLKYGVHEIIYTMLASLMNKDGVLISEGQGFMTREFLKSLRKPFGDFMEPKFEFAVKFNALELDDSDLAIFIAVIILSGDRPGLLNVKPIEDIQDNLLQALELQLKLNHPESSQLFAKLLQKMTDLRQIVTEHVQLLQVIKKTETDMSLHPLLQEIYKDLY
In kind it is functional.

The target in assay [3] is T1, Peroxisome proliferator-activated receptor alpha.
The target in assay [4] is T3, Peroxisome proliferator-activated receptor delta (Homo sapiens, UniProt Q03181).
T3 sequence (Q03181 whole entry): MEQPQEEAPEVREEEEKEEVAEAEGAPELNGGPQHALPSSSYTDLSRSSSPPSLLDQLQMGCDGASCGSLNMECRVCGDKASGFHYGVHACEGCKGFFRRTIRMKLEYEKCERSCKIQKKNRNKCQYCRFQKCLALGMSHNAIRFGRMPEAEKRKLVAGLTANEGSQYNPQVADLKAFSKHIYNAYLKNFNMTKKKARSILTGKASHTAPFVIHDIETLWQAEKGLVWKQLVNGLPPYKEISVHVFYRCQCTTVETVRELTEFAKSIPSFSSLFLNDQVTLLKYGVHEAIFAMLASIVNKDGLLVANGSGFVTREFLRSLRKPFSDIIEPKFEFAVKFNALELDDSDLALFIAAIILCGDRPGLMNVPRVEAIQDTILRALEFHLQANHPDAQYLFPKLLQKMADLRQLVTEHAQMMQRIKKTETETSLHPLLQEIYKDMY

The species named for assay [5] is Mus musculus. Format: functional.
The species named for assay [6] is Mus musculus. Kind of assay: animal or person. Format: functional.
The species named for assay [7] is Mus musculus. Kind of assay: animal or person. Format: functional. This is another data set of the same source.
The target in assay [8] is T4, Peroxisome proliferator-activated receptor delta (Homo sapiens) (UniProt Q03181).
T4 sequence (whole entry): T3 sequence (Q03181 whole entry)

Assay [9] concerns the target T4, Peroxisome proliferator-activated receptor delta (Homo sapiens). The source holds these as a separate data set.
The target in assay [10] is T1, Peroxisome proliferator-activated receptor alpha. In kind it is functional. This is another data set of the same source.
For assay [11], the target named is T5, Peroxisome proliferator-activated receptor gamma (Homo sapiens) (UniProt P37231).
T5 sequence (whole entry): T2 sequence (P37231 whole entry)

The species entered for assay [12] is Mus musculus. Kind of assay: animal or person. The following applies: Serum. In kind it is functional.

pEC50, pIC50: −log10 of the molar value. Active and inactive are the calls of the source. The rule behind the calls is not given here.

Regarding `CCCn1c(CCc2ccc(OC(C)(C)C(=O)O)cc2)nn(Cc2ccc(C)cc2)c1=O`, the results for the pEC50 in [1] and in assay [2] were 5.55 and 5.54, respectively.

With `CCCCCCn1c(CCc2ccc(OC(C)(C)C(=O)O)cc2)nn(Cc2cccc(OC)c2)c1=O`, the figures for the pEC50 in assay [1] and in assay [2] were 5.66 and 5.59, respectively.

Consider `CCCn1c(CCCc2ccc(OC(C)(C)C(=O)O)cc2)nn(C(C)c2ccccc2)c1=O` (configuration not stated), for which the pIC50 (usually −log10 of the IC50, conventionally taken in molar units) in assay [3] was 6.66; in [4] it was 5.82. For the same molecule, in assay [1], the pEC50 – broadly, −log10 of the EC50, conventionally taken in molar units – is 6.66.

In assay [5], `Cc1ccc(Cn2nc(CCCc3ccc(OC(C)(C)C(=O)O)cc3)nc2O)cc1` [LY-518674] displayed an Increase of 210%. In [4], this molecule gave a pIC50 of 5.42. Moreover, the figures for the ED50 in assay [6] and in assay [7] were 0.1 mg/kg and 0.3 mg/kg, respectively.

In the case of `Cc1ccc(Cn2nc(CCCc3ccc(OC(C)(C)C(=O)O)cc3)n(CC(=O)O)c2=O)cc1`, in assay [8], the NB result was “inactive”. This molecule also gave a pIC50 in assay [3] of 6.02. Further, in assay [1], the pEC50 was 5.57.

Take `CC(C)(Oc1ccc(C(=O)c2ccc(Cl)cc2)cc1)C(=O)O` [FENOFIBRIC ACID]: the NB result in assay [9] and in [11] was “inactive” throughout. For the same molecule, the pIC50 in assay [3] was 4.62. Also, in [10], the pEC50 is 4.89.

In the case of `CCCn1c(CCCc2ccc(OC(C)(C)C(=O)O)cc2)nn(Cc2cccc(OC)c2)c1=O`, the values for the pIC50 in assay [3] and in [4] were 7.72 and 5.70, respectively. Further, in assay [1], the negative-log EC50 (pEC50) is 7.51.

`CC(C)OC(=O)C(C)(C)Oc1ccc(C(=O)c2ccc(Cl)cc2)cc1` [FENOFIBRATE]: the Increase in assay [5] is 120%. In addition, the values for the ED50 in assay [12] and in [7] were 79 mg/kg and 110 mg/kg, respectively.

As for `Cc1ccc(Cn2nc(CCCc3ccc(OC(C)(C)C(=O)O)cc3)n(CCO)c2=O)cc1`, the pIC50 in [3] is 7.57; in assay [4], 5.39. In addition, the pEC50 in [1] is 7.06.

The values above are taken from ChEMBL document CHEMBL1145902, “Design and synthesis of a potent and selective triazolone-based peroxisome proliferator-activated receptor alpha agonist” (J Med Chem, 2003).
